# ChEMBL document CHEMBL4229410, “Facile construction of fused benzimidazole-isoquinolinones that induce cell-cycle arrest and apoptosis in colorectal cancer cells” (Bioorg Med Chem, 2018)
# The source made the active and inactive calls. No cut-off for these calls is given here.
# Assays:
# HT-29 [1] = test: Cell cycle arrest in human HT-29 cells assessed as accumulation at S-phase at 50 uM after 48 hrs by propidium iodide staining based flow cytometry (reference value: 37.82%); format: functional
# HT-29 [2] = test: Cell cycle arrest in human HT-29 cells assessed as accumulation at G2-phase at 75 uM after 48 hrs by propidium iodide staining based flow cytometry (reference value: 15.45%); format: functional
# HT-29 [3] = test: Upregulation of p21 expression in human HT-29 cells after 48 hrs by Western blot analysis; format: functional, cell-based
# SW-620 [4] = test: Induction of apoptosis in human SW620 cells assessed as early apoptotic cells at 50 uM after 48 hrs by Annexin-V-FITC/propidium iodide staining based flow cytometry (reference value: 0.4%); format: functional
# SW-620 [5] = test: Induction of apoptosis in human SW620 cells assessed as increase in PARP activation after 48 hrs by Western blot analysis; format: functional, cell-based
# HT-29 [6] = test: Inhibition of PI3K in human HT-29 cells assessed as reduction in AKT phosphorylation at S473 residue up to 75 uM after 48 hrs by Western blot analysis; format: cell-based
# [7] = Growth inhibition of human FHC cells after 48 hrs by MTT assay; format: cell-based
# [8] = target: Tyrosine-protein kinase receptor UFO (Homo sapiens) (UniProt P30530); test: Inhibition of human AXL (R497 to Y821 residues) expressed in bacterial expression system assessed as residual activity at 5 uM by KINOMEscan assay relative to control
# [9] = target: T1, Tyrosine-protein kinase BTK (Homo sapiens, UniProt Q06187); test: Inhibition of full length human BTK (M1 to S659 residues) expressed in mammalian expression system assessed as residual activity at 5 uM by KINOMEscan assay relative to control
# T1 sequence (Q06187 whole entry, the tested form may be a part): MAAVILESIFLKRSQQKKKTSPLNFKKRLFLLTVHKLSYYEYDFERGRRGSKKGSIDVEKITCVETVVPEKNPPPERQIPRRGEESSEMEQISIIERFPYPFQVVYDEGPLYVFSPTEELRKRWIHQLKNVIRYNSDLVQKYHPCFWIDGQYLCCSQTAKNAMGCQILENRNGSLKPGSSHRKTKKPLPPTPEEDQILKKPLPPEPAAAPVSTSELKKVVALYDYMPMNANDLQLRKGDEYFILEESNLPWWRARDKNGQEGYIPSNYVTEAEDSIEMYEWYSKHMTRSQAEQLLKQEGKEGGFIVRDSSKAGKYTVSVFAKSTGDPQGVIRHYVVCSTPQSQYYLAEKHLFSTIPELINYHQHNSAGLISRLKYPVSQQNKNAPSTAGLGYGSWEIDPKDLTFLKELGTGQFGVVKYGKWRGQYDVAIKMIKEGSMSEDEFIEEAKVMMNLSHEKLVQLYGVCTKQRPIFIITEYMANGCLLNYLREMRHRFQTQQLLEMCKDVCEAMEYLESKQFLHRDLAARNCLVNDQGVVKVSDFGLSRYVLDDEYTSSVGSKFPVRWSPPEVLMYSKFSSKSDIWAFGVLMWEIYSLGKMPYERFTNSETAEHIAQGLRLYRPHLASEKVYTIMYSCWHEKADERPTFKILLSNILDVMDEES
# [10] = target: Dual specificity tyrosine-phosphorylation-regulated kinase 1B (Homo sapiens, UniProt Q9Y463); test: Inhibition of full length human DYRK1B (M1 to S629 residues) expressed in bacterial expression system assessed as residual activity at 5 uM by KINOMEscan assay relative to control
# [11] = target: Receptor-type tyrosine-protein kinase FLT3 (Homo sapiens) (UniProt P36888); test: Inhibition of human FLT3 (V592 to Y969 residues) expressed in bacterial expression system assessed as residual activity at 5 uM by KINOMEscan assay relative to control
# [12] = target: Inhibitor of nuclear factor kappa-B kinase subunit beta (Homo sapiens) (UniProt O14920); test: Inhibition of full length human IKKbeta (M1 to S756 residues) expressed in mammalian expression system assessed as residual activity at 5 uM by KINOMEscan assay relative to control
# [13] = target: 3-phosphoinositide-dependent protein kinase 1 (Homo sapiens) (UniProt O15530); test: Inhibition of full length human PDPK1 (M1 to Q556 residues) expressed in bacterial expression system assessed as residual activity at 5 uM by KINOMEscan assay relative to control
# [14] = target: Phosphatidylinositol 4,5-bisphosphate 3-kinase catalytic subunit alpha isoform (Homo sapiens, UniProt P42336); test: Inhibition of human PIK3CA (R108 to N1068 residues) expressed in mammalian expression system assessed as residual activity at 5 uM by KINOMEscan assay relative to control
# Phosphatidylinositol 4,5-bisphosphate 3-kinase catalytic subunit alpha isoform, sequence (P42336 whole entry, the tested form may be a part, canonical isoform): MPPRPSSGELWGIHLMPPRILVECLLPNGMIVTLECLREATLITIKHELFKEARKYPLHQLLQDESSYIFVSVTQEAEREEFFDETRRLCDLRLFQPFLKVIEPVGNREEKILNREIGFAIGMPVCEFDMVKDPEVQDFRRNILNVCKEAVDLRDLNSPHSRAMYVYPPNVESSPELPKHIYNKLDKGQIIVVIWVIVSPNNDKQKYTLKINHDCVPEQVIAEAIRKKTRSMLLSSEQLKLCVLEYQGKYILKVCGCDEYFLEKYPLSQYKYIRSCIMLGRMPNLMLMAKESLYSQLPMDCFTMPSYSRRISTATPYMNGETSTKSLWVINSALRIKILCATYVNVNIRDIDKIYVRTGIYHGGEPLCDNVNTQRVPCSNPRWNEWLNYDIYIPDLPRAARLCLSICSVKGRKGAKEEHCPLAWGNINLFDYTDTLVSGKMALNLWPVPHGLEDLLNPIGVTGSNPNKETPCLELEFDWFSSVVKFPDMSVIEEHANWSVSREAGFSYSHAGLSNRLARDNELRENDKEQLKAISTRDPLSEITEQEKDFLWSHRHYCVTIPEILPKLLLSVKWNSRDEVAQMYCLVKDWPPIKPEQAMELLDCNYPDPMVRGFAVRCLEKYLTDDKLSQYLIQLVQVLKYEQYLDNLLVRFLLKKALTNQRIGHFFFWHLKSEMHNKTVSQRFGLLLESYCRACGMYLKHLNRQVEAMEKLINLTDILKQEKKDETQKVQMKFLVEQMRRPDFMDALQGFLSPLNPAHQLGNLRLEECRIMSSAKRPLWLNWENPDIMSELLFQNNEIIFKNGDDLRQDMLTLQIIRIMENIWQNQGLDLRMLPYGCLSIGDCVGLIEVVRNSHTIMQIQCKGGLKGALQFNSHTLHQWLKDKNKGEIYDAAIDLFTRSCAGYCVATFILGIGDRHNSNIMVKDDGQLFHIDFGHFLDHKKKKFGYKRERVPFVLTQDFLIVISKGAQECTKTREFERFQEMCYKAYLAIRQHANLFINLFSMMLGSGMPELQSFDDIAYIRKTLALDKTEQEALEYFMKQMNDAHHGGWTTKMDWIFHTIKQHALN
# [15] = target: Rho-associated protein kinase 2 (Homo sapiens, UniProt O75116); test: Inhibition of human ROCK2 (M1 to T431 residues) expressed in mammalian expression system assessed as residual activity at 5 uM by KINOMEscan assay relative to control
# [16] = target: NUAK family SNF1-like kinase 2 (Homo sapiens) (UniProt Q9H093); test: Inhibition of human SNARK (P22 to A333 residues) expressed in mammalian expression system assessed as residual activity at 5 uM by KINOMEscan assay relative to control
# [17] = target: Testis-specific serine/threonine-protein kinase 1 (Homo sapiens) (UniProt Q9BXA7); test: Inhibition of full length human TSSK1B (M1 to Q367 residues) expressed in bacterial expression system assessed as residual activity at 5 uM by KINOMEscan assay relative to control
# [18] = target: Tyrosine-protein kinase ZAP-70 (Homo sapiens) (UniProt P43403); test: Inhibition of human ZAP70 (D20 to G299 residues) expressed in mammalian expression system assessed as residual activity at 5 uM by KINOMEscan assay relative to control
# [19] = target: Tyrosine-protein kinase ABL1 (Homo sapiens, UniProt P00519, E255K); test: Binding affinity to human phosphorylated ABL1 E255K mutant (S229 to K512 residues) expressed in mammalian expression system by KINOMEscan assay
# Tyrosine-protein kinase ABL1, sequence (P00519 whole entry E255K, the tested form may be a part): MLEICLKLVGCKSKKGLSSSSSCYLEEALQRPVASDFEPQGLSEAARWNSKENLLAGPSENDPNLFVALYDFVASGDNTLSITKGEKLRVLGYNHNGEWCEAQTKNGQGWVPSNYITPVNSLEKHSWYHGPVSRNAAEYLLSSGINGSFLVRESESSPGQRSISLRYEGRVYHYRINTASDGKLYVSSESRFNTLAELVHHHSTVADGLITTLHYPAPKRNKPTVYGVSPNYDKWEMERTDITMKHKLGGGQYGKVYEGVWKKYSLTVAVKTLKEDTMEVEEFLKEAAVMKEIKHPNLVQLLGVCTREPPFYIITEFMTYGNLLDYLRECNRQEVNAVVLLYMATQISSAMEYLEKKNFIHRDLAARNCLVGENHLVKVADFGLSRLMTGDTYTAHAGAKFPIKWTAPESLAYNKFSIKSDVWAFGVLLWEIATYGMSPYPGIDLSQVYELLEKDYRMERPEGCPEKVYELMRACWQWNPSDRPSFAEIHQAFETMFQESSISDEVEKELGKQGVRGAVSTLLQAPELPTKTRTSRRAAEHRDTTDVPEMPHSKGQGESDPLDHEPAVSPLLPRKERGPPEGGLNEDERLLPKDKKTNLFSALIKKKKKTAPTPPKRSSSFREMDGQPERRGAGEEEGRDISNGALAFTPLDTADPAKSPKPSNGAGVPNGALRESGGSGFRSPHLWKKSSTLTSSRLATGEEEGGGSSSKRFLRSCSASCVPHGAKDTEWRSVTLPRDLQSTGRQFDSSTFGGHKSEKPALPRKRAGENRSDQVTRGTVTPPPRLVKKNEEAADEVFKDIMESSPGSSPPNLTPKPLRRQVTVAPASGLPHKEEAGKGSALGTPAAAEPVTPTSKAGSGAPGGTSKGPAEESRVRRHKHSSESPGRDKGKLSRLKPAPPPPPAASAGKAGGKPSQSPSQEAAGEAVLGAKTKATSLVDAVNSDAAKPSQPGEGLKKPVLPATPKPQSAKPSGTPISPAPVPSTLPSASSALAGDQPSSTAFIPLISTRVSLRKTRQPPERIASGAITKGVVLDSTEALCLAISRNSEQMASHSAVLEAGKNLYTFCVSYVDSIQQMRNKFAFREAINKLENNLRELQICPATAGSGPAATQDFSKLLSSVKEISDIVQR
# [20] = target: Atypical kinase COQ8A, mitochondrial (Homo sapiens, UniProt Q8NI60); test: Binding affinity to full length human ADCK3 (M280 to Q647 residues) expressed in bacterial expression system by KINOMEscan assay
# [21] = target: T1, Tyrosine-protein kinase BTK; test: Binding affinity to full length human BTK (M1 to S659 residues) expressed in mammalian expression system by KINOMEscan assay
# Ephrin type-A receptor 2 = Ephrin type-A receptor 2 (Homo sapiens, UniProt P29317); test: Binding affinity to human EPHA2 (T593 to V891 residues) expressed in bacterial expression system by KINOMEscan assay
# Ephrin type-A receptor 2, sequence (P29317 whole entry, the tested form may be a part): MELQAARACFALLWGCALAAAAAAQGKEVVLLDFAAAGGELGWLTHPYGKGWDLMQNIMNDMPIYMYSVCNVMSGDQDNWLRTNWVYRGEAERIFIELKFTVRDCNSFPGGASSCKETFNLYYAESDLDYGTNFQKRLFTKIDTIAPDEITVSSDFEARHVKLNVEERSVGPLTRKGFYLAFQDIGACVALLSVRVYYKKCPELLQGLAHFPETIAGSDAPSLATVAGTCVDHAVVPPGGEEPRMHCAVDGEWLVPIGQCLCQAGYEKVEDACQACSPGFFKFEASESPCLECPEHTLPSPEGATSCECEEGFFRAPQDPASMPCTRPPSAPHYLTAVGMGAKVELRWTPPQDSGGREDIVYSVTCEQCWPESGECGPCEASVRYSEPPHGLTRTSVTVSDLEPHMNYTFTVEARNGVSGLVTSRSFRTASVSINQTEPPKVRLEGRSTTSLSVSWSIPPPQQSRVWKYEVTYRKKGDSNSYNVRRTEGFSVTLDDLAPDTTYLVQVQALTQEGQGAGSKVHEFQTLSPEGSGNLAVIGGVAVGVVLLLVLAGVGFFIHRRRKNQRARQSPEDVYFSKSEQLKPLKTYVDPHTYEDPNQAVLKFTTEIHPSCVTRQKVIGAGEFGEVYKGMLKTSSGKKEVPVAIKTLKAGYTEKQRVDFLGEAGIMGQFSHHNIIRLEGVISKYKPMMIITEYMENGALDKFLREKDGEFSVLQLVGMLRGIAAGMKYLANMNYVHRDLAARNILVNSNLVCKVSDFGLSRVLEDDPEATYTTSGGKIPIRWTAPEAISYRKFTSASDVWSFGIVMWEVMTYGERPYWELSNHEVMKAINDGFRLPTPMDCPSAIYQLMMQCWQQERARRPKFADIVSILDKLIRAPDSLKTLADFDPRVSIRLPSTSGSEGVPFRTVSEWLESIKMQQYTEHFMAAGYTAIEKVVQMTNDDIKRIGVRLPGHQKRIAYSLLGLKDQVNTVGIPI
# [22] = target: Receptor tyrosine-protein kinase erbB-4 (Homo sapiens, UniProt Q15303); test: Binding affinity to human ERBB4 (L690 to K994 residues) expressed in bacterial expression system by KINOMEscan assay
# [23] = target: Mitogen-activated protein kinase 8 (Homo sapiens, UniProt P45983); test: Binding affinity to full length human JNK1 (M1 to Q384 residues) expressed in mammalian expression system by KINOMEscan assay
# [24] = target: Mitogen-activated protein kinase kinase kinase 4 (Homo sapiens, UniProt Q9Y6R4); test: Binding affinity to human MAP3K4 (G1319 to E1608 residues) expressed in bacterial expression system by KINOMEscan assay
# [25] = target: MAP kinase-activated protein kinase 2 (Homo sapiens, UniProt P49137); test: Binding affinity to human MAPKAPK2 (V48 to D345 residues) expressed in bacterial expression system by KINOMEscan assay
# [26] = target: Serine/threonine-protein kinase PAK 2 (Homo sapiens, UniProt Q13177); test: Binding affinity to partial length human PAK2 (P151 to R525 residues) expressed in bacterial expression system by KINOMEscan assay
# Serine/threonine-protein kinase PAK 2, sequence (Q13177 whole entry, the tested form may be a part): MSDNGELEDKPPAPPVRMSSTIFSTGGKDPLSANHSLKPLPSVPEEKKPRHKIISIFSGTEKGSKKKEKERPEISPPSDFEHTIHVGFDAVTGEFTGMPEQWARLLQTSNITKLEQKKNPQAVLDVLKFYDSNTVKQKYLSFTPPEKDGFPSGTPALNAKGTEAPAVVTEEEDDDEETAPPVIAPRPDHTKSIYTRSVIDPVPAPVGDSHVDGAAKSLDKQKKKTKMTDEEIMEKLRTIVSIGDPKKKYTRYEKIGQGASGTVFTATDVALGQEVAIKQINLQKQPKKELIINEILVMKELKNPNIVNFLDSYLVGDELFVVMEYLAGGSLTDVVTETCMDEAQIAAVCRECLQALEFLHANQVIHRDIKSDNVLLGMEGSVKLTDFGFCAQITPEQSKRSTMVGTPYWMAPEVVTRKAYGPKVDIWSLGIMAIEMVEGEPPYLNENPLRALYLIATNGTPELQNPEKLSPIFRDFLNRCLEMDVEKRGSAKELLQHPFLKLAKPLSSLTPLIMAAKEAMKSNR
# [27] = target: Serine/threonine-protein kinase pim-2 (Homo sapiens, UniProt Q9P1W9); test: Binding affinity to human PIM2 (M1 to E291 residues) expressed in bacterial expression system by KINOMEscan assay
# [28] = target: Serine/threonine-protein kinase RIO2 (Homo sapiens, UniProt Q9BVS4); test: Binding affinity to human RIOK2 (M1 to D313 residues) expressed in mammalian expression system by KINOMEscan assay
# TGF-beta receptor type-1 = TGF-beta receptor type-1 (Homo sapiens, UniProt P36897); test: Binding affinity to human TGFBR1 (D179 to M503 residues) expressed in bacterial expression system by KINOMEscan assay
# TGF-beta receptor type-1, sequence (P36897 whole entry, the tested form may be a part): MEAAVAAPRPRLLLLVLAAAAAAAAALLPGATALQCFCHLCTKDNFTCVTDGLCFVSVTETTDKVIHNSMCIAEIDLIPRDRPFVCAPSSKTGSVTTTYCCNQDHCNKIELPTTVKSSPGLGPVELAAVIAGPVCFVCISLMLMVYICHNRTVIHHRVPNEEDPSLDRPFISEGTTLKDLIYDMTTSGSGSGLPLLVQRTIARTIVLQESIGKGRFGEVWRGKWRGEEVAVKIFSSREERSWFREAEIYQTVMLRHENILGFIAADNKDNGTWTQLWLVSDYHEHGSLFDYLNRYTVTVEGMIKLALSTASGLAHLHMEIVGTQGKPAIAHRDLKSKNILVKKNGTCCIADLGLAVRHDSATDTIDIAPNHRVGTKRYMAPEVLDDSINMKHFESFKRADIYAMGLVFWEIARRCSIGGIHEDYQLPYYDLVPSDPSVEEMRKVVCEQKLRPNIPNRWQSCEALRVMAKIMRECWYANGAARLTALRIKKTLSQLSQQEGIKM
compound,measurement,setting,value
CC(C)CN(C(=O)c1cccnc1)c1c2ccccc2c(=O)n2c1[nH]c1ccccc12,Activity,HT-29 [1],35.86%
same,Activity,HT-29 [2],21.78%
same,Activity,HT-29 [3],Dose-dependent effect
same,Activity,SW-620 [4],0.6%
same,Activity,SW-620 [5],Dose-dependent effect
same,inhibition,HT-29 [6],Active
same,GI50 at 48 h,[7],> 200 µM
same,Activity,[8],100%
same,Activity,[9],74%
same,Activity,[10],95%
same,Activity,[11],98%
same,Activity,[12],93%
same,Activity,[13],93%
same,Activity,[14],100%
same,Activity,[15],80%
same,Activity,[16],100%
same,Activity,[17],92%
same,Activity,[18],89%
same,Kd,[19],≥ 5 µM
same,Kd,[20],≥ 5 µM
same,Kd,[21],≥ 5 µM
same,Kd,Ephrin type-A receptor 2,≥ 5 µM
same,Kd,[22],≥ 5 µM
same,Kd,[23],≥ 5 µM
same,Kd,[24],≥ 5 µM
same,Kd,[25],≥ 5 µM
same,Kd,[26],≥ 5 µM
same,Kd,[27],≥ 5 µM
same,Kd,[28],≥ 5 µM
same,Kd,TGF-beta receptor type-1,≥ 5 µM
